In patent US6387241B1, “Method of sterilization using ozone” (priority 1993, dated 2002):
Like-named read-outs stand apart in the source and are kept apart here.

Tested on: spores of Bacillus stearothermophilus and Bacillus subtilis var. niger (Duo-Spore paper spore strips)

Structure (SMILES): O=[O+][O-] [ozone]
- ozone exposure time to achieve overkill (100% of the spore strips sterilized) ("flow through" mode, about 2 liters per minute, 10-12 wt% ozone): 60 min
- ozone exposure time to achieve overkill (100% of the spore strips sterilized) ("pressure" mode, generator output 10-12 wt% ozone): 45 min
- ozone exposure time to achieve overkill (100% of the spore strips sterilized) ("single fill" mode, static 10 wt% ozone): 90 min
